# Active and inactive are the calls of the source. No cut-off for these calls is given here.
# Experiments:
# Cronobacter sakazakii = assay: Antibacterial activity against Cronobacter sakazakii ATCC 29544 incubated for 16 to 20 hrs by broth microdilution method; assay type: functional; conditions: time 16-20 hrs
# [1] = Genotoxicity in Salmonella typhimurium TA1535 assessed as number of revertants at 1.6x10^-6 mg/plate incubated for 72 hrs in absence of liver S9 fraction by Ames test (reference value: 14.33 +/- 0.58); assay type: toxicity; conditions: salmonella enterica subsp. enterica serovar typhimurium, s9, 72 h
# Staphylococcus aureus [2] = assay: Antibacterial activity against Staphylococcus aureus ATCC 29213 at pH 7 incubated for 16 to 20 hrs by broth microdilution method; assay type: functional; conditions: time 16-20 hrs
# [3] = Genotoxicity in Salmonella typhimurium TA98 assessed as number of revertants at 1.6x10^-6 mg/plate incubated for 72 hrs in presence of liver S9 fraction by Ames test (reference value: 43.67+/- 7.1); assay type: toxicity, subcellular; conditions: salmonella enterica subsp. enterica serovar typhimurium, s9, 72 h
# Staphylococcus aureus [4] = assay: Antibacterial activity against Staphylococcus aureus incubated for 16 to 20 hrs by broth microdilution method; assay type: functional; conditions: time 16-20 hrs
# [5] = Genotoxicity in Salmonella typhimurium TA1535 assessed as number of revertants at 4x10^-5 mg/plate incubated for 72 hrs in presence of liver S9 fraction by Ames test (reference value: 15.33 +/- 2.52); assay type: toxicity, subcellular; conditions: salmonella enterica subsp. enterica serovar typhimurium, s9, 72 h
# Escherichia coli [6] = assay: Antibacterial activity against Escherichia coli ATCC 25922 incubated for 16 to 20 hrs using 10^7 CFU/ml bacterial inoculum by broth microdilution method; assay type: functional; conditions: time 16-20 hrs
# Staphylococcus aureus [7] = assay: Antibacterial activity against Staphylococcus aureus ATCC 25923 infected in kunming mouse assessed as reduction in bacterial load at 20 to 40 mg/kg, iv measured after 1 hr; assay type: functional, organism-based; conditions: dose 20-40 mg/kg
# [8] = Genotoxicity in Salmonella typhimurium TA98 assessed as number of revertants at 1x10^-3 mg/plate incubated for 72 hrs in absence of liver S9 fraction by Ames test (reference value: 57.33 +/- 3.06); assay type: toxicity; conditions: salmonella enterica subsp. enterica serovar typhimurium, s9, 72 h
# [9] = Genotoxicity in Salmonella typhimurium TA100 assessed as number of revertants at 1x10^-3 mg/plate incubated for 72 hrs in presence of liver S9 fraction by Ames test (reference value: 204.33 +/- 8.14); assay type: toxicity, subcellular; conditions: salmonella enterica subsp. enterica serovar typhimurium, s9, 72 h
# [10] = Genotoxicity in Salmonella typhimurium TA1537 assessed as number of revertants at 8x10^-6 mg/plate incubated for 72 hrs in absence of liver S9 fraction by Ames test (reference value: 22.67 +/- 2.52); assay type: toxicity; conditions: salmonella enterica subsp. enterica serovar typhimurium, s9, 72 h
# Escherichia coli [11] = assay: Antibacterial activity against Escherichia coli ATCC 25922 incubated for 16 to 20 hrs using 10^5 CFU/ml bacterial inoculum by broth microdilution method; assay type: functional; conditions: time 16-20 hrs
# Escherichia coli [12] = assay: Antibacterial activity against Escherichia coli ATCC 25922 at pH 8 incubated for 16 to 20 hrs by broth microdilution method; assay type: functional; conditions: time 16-20 hrs
# [13] = Genotoxicity in Salmonella typhimurium TA100 assessed as number of revertants at 2x10^-4 mg/plate incubated for 72 hrs in absence of liver S9 fraction by Ames test (reference value: 221.67 +/- 15.57); assay type: toxicity; conditions: salmonella enterica subsp. enterica serovar typhimurium, s9, 72 h
# Staphylococcus aureus [14] = assay: Antibacterial activity against Staphylococcus aureus ATCC 29213 at pH 8.6 incubated for 16 to 20 hrs in presence of 50% foetal bovine serum by broth microdilution method; assay type: functional; conditions: time 16-20 hrs
# Escherichia coli [15] = assay: Antibacterial activity against Escherichia coli ATCC 25922 at pH 7 incubated for 16 to 20 hrs by broth microdilution method; assay type: functional; conditions: time 16-20 hrs
# [16] = Genotoxicity in Salmonella typhimurium TA102 assessed as number of revertants at 2x10^-4 mg/plate incubated for 72 hrs in presence of liver S9 fraction by Ames test (reference value: 465.33 +/- 18.04); assay type: toxicity, subcellular; conditions: salmonella enterica subsp. enterica serovar typhimurium, s9, 72 h
# Staphylococcus aureus [17] = assay: Antibacterial activity against Staphylococcus aureus ATCC 25923 incubated for 16 to 20 hrs by broth microdilution method; assay type: functional; conditions: time 16-20 hrs
# [18] = Genotoxicity in Salmonella typhimurium TA98 assessed as number of revertants at 1x10^-3 mg/plate incubated for 72 hrs in presence of liver S9 fraction by Ames test (reference value: 43.67+/- 7.1); assay type: toxicity, subcellular; conditions: salmonella enterica subsp. enterica serovar typhimurium, s9, 72 h
# [19] = Genotoxicity in Salmonella typhimurium TA102 assessed as number of revertants at 2x10^-4 mg/plate incubated for 72 hrs in absence of liver S9 fraction by Ames test (reference value: 386.67 +/- 23.44); assay type: toxicity; conditions: salmonella enterica subsp. enterica serovar typhimurium, s9, 72 h
# Staphylococcus aureus [20] = assay: Antibacterial activity against Staphylococcus aureus ATCC 29213 incubated for 16 to 20 hrs using 10^6 CFU/ml bacterial inoculum by broth microdilution method; assay type: functional; conditions: time 16-20 hrs
# Escherichia coli [21] = assay: Inhibition of protein synthesis in Escherichia coli ATCC 25922 assessed as reduction in protein content at […] measured upto 12 hrs by microporous enzyme labeling method relative to control; assay type: functional
# [22] = Toxicity in Kunming mouse infected with Staphylococcus aureus ATCC 25923 assessed as hyperelastic lung tissue at 20 to 40 mg/kg, iv measured after 1 hr by hematoxylin and eosin staining based microscopic analysis; assay type: organism-based; conditions: in vivo, dose 20-40 mg/kg
# Escherichia coli [23] = assay: Antibacterial activity against Escherichia coli ATCC 25922 incubated for 16 to 20 hrs using 10^3 CFU/ml bacterial inoculum by broth microdilution method; assay type: functional; conditions: time 16-20 hrs
# [24] = Genotoxicity in Salmonella typhimurium TA1537 assessed as number of revertants at 2x10^-4 mg/plate incubated for 72 hrs in absence of liver S9 fraction by Ames test (reference value: 22.67 +/- 2.52); assay type: toxicity; conditions: salmonella enterica subsp. enterica serovar typhimurium, s9, 72 h
# Staphylococcus aureus [25] = assay: Antibacterial activity against Staphylococcus aureus ATCC 29213 at pH 8.2 incubated for 16 to 20 hrs by broth microdilution method; assay type: functional; conditions: time 16-20 hrs
# [26] = Genotoxicity in Salmonella typhimurium TA1537 assessed as number of revertants at 2x10^-4 mg/plate incubated for 72 hrs in presence of liver S9 fraction by Ames test (reference value: 20 +/- 5); assay type: toxicity, subcellular; conditions: salmonella enterica subsp. enterica serovar typhimurium, s9, 72 h
# Pseudomonas aeruginosa = assay: Antibacterial activity against Pseudomonas aeruginosa LTP-3 incubated for 16 to 20 hrs by broth microdilution method; assay type: functional; conditions: time 16-20 hrs
# [27] = Genotoxicity in Salmonella typhimurium TA102 assessed as number of revertants at 1x10^-3 mg/plate incubated for 72 hrs in absence of liver S9 fraction by Ames test (reference value: 386.67 +/- 23.44); assay type: toxicity; conditions: salmonella enterica subsp. enterica serovar typhimurium, s9, 72 h
# [28] = tested on: Staphylococcus chromogenes; assay: Antibacterial activity against Staphylococcus chromogenes incubated for 16 to 20 hrs by broth microdilution method; assay type: functional; conditions: time 16-20 hrs
# Staphylococcus aureus [29] = assay: Ratio of MBC to MIC for Staphylococcus aureus ATCC 29213; assay type: functional
# Escherichia coli [30] = assay: Induction of drug resistance in Escherichia coli ATCC 25922 assessed as increase in MIC measured after 30 passages by broth microdilution method; assay type: functional
# Escherichia coli [31] = assay: Antibacterial activity against Escherichia coli ATCC 25922 incubated for 16 to 20 hrs using 10^4 CFU/ml bacterial inoculum by broth microdilution method; assay type: functional; conditions: time 16-20 hrs
# Escherichia coli [32] = assay: Antibacterial activity against Escherichia coli ATCC 25922 at pH 7.2 incubated for 16 to 20 hrs by broth microdilution method; assay type: functional; conditions: time 16-20 hrs
# [33] = Genotoxicity in Salmonella typhimurium TA100 assessed as number of revertants at 1x10^-3 mg/plate incubated for 72 hrs in absence of liver S9 fraction by Ames test (reference value: 221.67 +/- 15.57); assay type: toxicity; conditions: salmonella enterica subsp. enterica serovar typhimurium, s9, 72 h
structure (smiles),measurement,setting,value
CC[C@H]1OC(=O)C[C@@H](O)[C@H](C)[C@@H](O[C@@H]2O[C@H](C)[C@@H](O)[C@H](N(C)C)[C@H]2O)[C@@H](CCN(C)Cc2cn(-c3cnc4ccccc4c3)nn2)C[C@@H](C)C(=O)/C=C/C(C)=C/[C@@H]1CN1CCCCCC1,MIC,Cronobacter sakazakii,4 mg/L
same,Activity,[1],6.67
same,MIC,Staphylococcus aureus [2],2 mg/L
same,Activity,[3],42.33
same,MIC,Staphylococcus aureus [4],0.25 mg/L
same,Activity,[5],15
same,MIC,Escherichia coli [6],1 mg/L
same,Activity,Staphylococcus aureus [7],Active
same,Activity,[8],60.33
same,Activity,[9],174.67
same,Activity,[10],21.33
same,MIC,Escherichia coli [11],0.5 mg/L
same,MIC,Escherichia coli [12],0.25 mg/L
same,Activity,[13],223.33
same,MIC,Staphylococcus aureus [14],2 mg/L
same,MIC,Escherichia coli [15],4 mg/L
same,Activity,[16],456.67
same,MIC,Staphylococcus aureus [17],0.125 mg/L
same,Activity,[18],40.33
same,Activity,[19],449.33
same,MIC,Staphylococcus aureus [20],0.25 mg/L
same,inhibition,Escherichia coli [21],32.1%
same,Activity,[22],Non-Toxic
same,MIC,Escherichia coli [23],0.25 mg/L
same,Activity,[24],15.67
same,MIC,Staphylococcus aureus [25],≤ 0.0625 mg/L
same,Activity,[26],15
same,MIC,Pseudomonas aeruginosa,0.5 mg/L
same,Activity,[27],418
same,MIC,[28],0.25 mg/L
same,Ratio,Staphylococcus aureus [29],2
same,Activity,Escherichia coli [30],Active
same,MIC,Escherichia coli [31],0.25 mg/L
same,MIC,Escherichia coli [32],1 mg/L
same,Activity,[33],231

# From ChEMBL document CHEMBL5126592, “Design, synthesis and activity against drug-resistant bacteria evaluation of C-20, C-23 modified 5-O-mycaminosyltylonolide derivatives” (Eur J Med Chem, 2022)
